In PubChem BioAssay AID1963436 (Molecular Pharmacology Branch, DTP, NCI, 2024):
Where “and” joins values, the source holds several entries; their conditions need not be identical. Equal entries are not always repeated.

System: OVCAR-5 complex spheroid (HUVEC/MSC), viability % T/C
Assay: Anticancer human tumor OVCAR-5 cell line growth inhibition [Asc];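 note: spheroids exposed to agents for 7 days before readout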;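 for viability, T/C: 100% = DMSO vehicle-treated wells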
Settings: for viability, T/C: stronger effect = lower value
Experimental: Multicellular complex tumor spheroid response to apoptosis pathway targeting inhibitors Alrizomadlin, Pelcitoclax, and Dasminapant in combination with a variety of drugs and investigational agents in selected tumor cell lines
The MDM2 inhibitor alrizomadlin, the Bcl-2/Bcl-xL inhibitor pelcitoclax, and the IAPs inhibitor dasminapant were evaluated both individually and in combination with standard of care and investigational anticancer small molecules within a complex spheroid model of solid tumors. . Complex spheroids include a stromal component modeled by human endothelial cells (HUVEC) and fibroblasts modeled by human mesenchymal stem cells (MSCs). The concentration ranges selected for each drug and investigational agent were based upon clinically achievable concentrations if the clinical Cmax of the agent was known.
Compounds. The drugs and investigational agents: alrizomadlin (APG-115; NSC831270), pelcitoclax (APG-1252; NSC835773), dasminapant (APG-1387;NSC834197), TAK-243 (NSC785004), copanlisib (NSC809693), olaparib (NSC753686), talazoparib (NSC767125), cobimetinib (NSC 768068), eltanexor (KPT-8602, NSC 794443), abemaciclib (NSC 768073), sotorasib (NSC818433), adagrasib (NSC 831453), MRTX-1133 (NSC 836407), Iadademestat (ORY1001, NSC 806812), and RMC-4630 (NSC839698), were obtained from the NCI Developmental Therapeutics Program Chemical Repository. The FDA-approved anticancer drug set is available from the Developmental Therapeutics Program at https://dtp.cancer.gov/organization/dscb/obtaining/available plates.htm. […] The stock solutions were prepared in dimethyl sulfoxide (DMSO, Sigma-Aldrich, St. Louis, MO, cat. D2650) at 800-fold the tested concentration and stored at -70 degrees C prior to their use. All drugs and investigational agents were tested over a range starting from a high concentration at or near the clinical Cmax and decreasing in half-log increments. If the clinical Cmax for an agent had not been determined, the highest concentration tested was 10 microM.
The patient-derived cancer (PDC) cell lines include five colon adenocarcinomas: 186277-243-T-J2-PDC, 616215-338-R-J1-PDC, 439559-082-T-J2-PDC, 463943-066-T-J2-PDC, and 519858-162-T-J1-PDC; three pancreatic carcinomas: 323965-272-R-J2-PDC, 521955-158-R6-J3-PDC, and 521955-158-R2-J5-PDC; two uterine sarcomas: 327498-152-R-J2-PDC and 993429-296-R-J1-PDC; two rhabdomyosarcomas: 755483-174-R-J1-PDC and 772245-204-R-J1-PDC; two soft tissue sarcomas: 126254-015-R-J1-PDC and 494315-158-R-J1-PDC; two malignant fibrous histiocytomas: 317291-083-R-J1-PDC and 596521-263-R-J1-PDC; two breast carcinomas: 171881-019-R-J1-PDC and 885512-296-R-J2-PDC; and one ovarian carcinoma: 6556581-035-R-J-PDC were obtained from the NCI PDMR, (https://pdmr.cancer.gov). The established cell lines HSSY-2 synovial sarcoma (RRID:CVCL 8719), SYO-1 synovial sarcoma (RRID:CVCL_7146), MPNST malignant peripheral neural sheath tumor were obtained from the Sloan Kettering Institute. The following established cell lines were purchased from the American Type Culture Collection (ATCC, Manassas, VA), Sor the received from the NCI repository:, PANC-1 pancreatic carcinoma (CRL-1469, RRID:CVCL_0480), OVCAR-5 ovarian carcinoma (RRID:CVCL_1628), OVCAR-8 ovarian carcinoma (RRID:CVCL_1629), , MCF-7 breast carcinoma (CRL-12584, RRID:CVCL_0031), MDA-MB-231 breast carcinoma (CRL-12532, RRID:CVCL_0062), NCI-H1876 small cell lung carcinoma (CRL-5902, RRID:CVCL_1503), NCI-H510A small cell lung carcinoma (HTB-184, RRID:CVCL_1565), NCI-H1417 (CRL-5869, RRID:CVCL_1469), and NCI-H196 small cell lung carcinoma (CRL-5823, RRID:CVCL_1509). Dr. Peter Houghton (Greehey Children's Cancer Research Institute, University of Texas Health Science Center, San Antonio, TX) provided Rh-18 rhabdomyosarcoma (RRID:CVCL_1659). Pooled donor human umbilical vein endothelial cells (HUVEC, Lonza, cat. CC-2519) and human mesenchymal stem cells (hMSC, Lonza, cat. PT-2501) were purchased from Lonza (Walkersville, MD).
Cell Culture. […]

[1] = compound alone, run of 09/27/2022

Row | Compound | viability, T/C (compound 0.0316 µM) | viability, T/C (compound 0.1 µM) | viability, T/C (compound 0.316 µM) | viability, T/C (compound 1 µM) | viability, T/C (compound 3.16 µM) | IC50 (curve of compound) | viability, T/C (compound 0.00316 µM) | viability, T/C (compound 0.01 µM) | other results
1 | C#Cc1c(F)ccc2cc(O)cc(-c3ncc4c(N5CC6CCC(C5)N6)nc(OCC56CCCN5CC(F)C6)nc4c3F)c12 (configuration not stated) | 114% and 104% and 101% | 112% and 100% and 106% | 92.9% and 93.9% and 84.2% | 80.5% and 88.2% and 96.8% | 78.7% and 72.7% and 75% | 7560 nM and 6900 nM and 7160 nM |  |  | viability, T/C (compound 10 µM): 40.5% and 39.1% and 39.3%
2 | C=C(F)C(=O)N1CCN(c2nc(OCC3CCCN3C)nc3c2CCN(c2cccc4cccc(Cl)c24)C3)CC1CC#N (configuration not stated) | 102% and 108% and 105% | 100% and 107% and 97.9% | 83.5% and 91.4% and 89.7% | 54.5% and 60.8% and 67.8% | 10.6% and 8.67% and 19.2% | 1050 nM and 1210 nM and 1490 nM |  |  | viability, T/C (compound 10 µM): 0.23% and 0.22% and 0.3%
3 | C=CC(=O)N1CCN(c2nc(=O)n(-c3c(C)ccnc3C(C)C)c3nc(-c4c(O)cccc4F)c(F)cc23)C(C)C1 (configuration not stated) | 98.8% and 111% and 105% | 103% and 112% and 98% | 110% and 116% and 104% | 122% and 114% and 107% | 120% and 115% and 111% | > 10000 nM |  |  | viability, T/C (compound 10 µM): 97% and 100% and 104%
4 | CCN1C(C(=O)NC23CCC(C(=O)O)(CC2)CC3)C(c2cccc(Cl)c2F)C2(C(=O)Nc3cc(Cl)ccc32)C12CCCCC2 (configuration not stated) |  |  |  |  |  | > 3000 nM |  |  | viability, T/C (compound 0.00949 µM): 101% and 109%; viability, T/C (compound 0.03 µM): 97.1% [middle of 15 runs]; viability, T/C (compound 0.0949 µM): 93.8% [middle of 15 runs]; viability, T/C (compound 0.3 µM): 95.7% [middle of 15 runs]; viability, T/C (compound 0.949 µM): 99.8% [middle of 15 runs]; viability, T/C (compound 3 µM): 103% [middle of 15 runs]; IC50 [1]: > 3000 nM
5 | CCN1CCN(Cc2ccc(Nc3ncc(F)c(-c4cc(F)c5nc(C)n(C(C)C)c5c4)n3)nc2)CC1 | 70.1% and 70.8% and 77.2% | 66.8% and 66.6% and 69.3% | 71.2% and 64.5% and 68.4% | 60.4% and 55.5% and 60.6% |  | > 1000 nM | 96.2% and 105% and 97.1% | 89% and 87.6% and 79.2% | 
6 | CNC(C)C(=O)NC1CN(S(=O)(=O)c2cccc(S(=O)(=O)N3CCC4CCC(C(=O)NC(c5ccccc5)c5ccccc5)N4C(=O)C(NC(=O)C(C)NC)C3)c2)CCC2CCC(C(=O)NC(c3ccccc3)c3ccccc3)N2C1=O (configuration not stated) | 83.1% [middle of 15 runs] | 80.8% [middle of 15 runs] | 81.5% [middle of 15 runs] | 80.3% [middle of 15 runs] |  | > 1000 nM | 97.5% and 104% | 95.1% [middle of 15 runs] | IC50 (compound alone, run of 10/03/2022): > 1000 nM
7 | COc1c(OCCCN2CCOCC2)ccc2c3n(c(=NC(=O)c4cnc(N)nc4)nc12)CCN3 | 49.5% and 55% and 55.8% | 26.1% and 29.9% and 42% | 20.3% and 21.6% and 24.1% | 9.88% and 9.15% and 11.8% |  | 32.4 nM and 43.9 nM and 55.3 nM | 85% and 93% and 92.1% | 76.2% and 90.5% and 80.5% | 
8 | Cc1c(S(C)(=O)=O)c(-c2cc(F)cc(N3CCN(c4ccc(NS(=O)(=O)c5ccc(NC(CCN6CCC(C(=O)OCCCP(=O)(O)O)CC6)CSc6ccccc6)c(S(=O)(=O)C(F)(F)F)c5)cc4)CC3)c2)c(-c2ccc(Cl)cc2)n1C(C)C (configuration not stated) |  |  | 92.2% [middle of 14 runs] | 90.3% [middle of 14 runs] | 88.8% [middle of 13 runs] |  |  |  | IC50 [1]: > 10000 nM
9 | Cc1nc(N2CCC3(CC2)COC(C)C3N)c(CO)nc1Sc1ccnc(N)c1Cl (configuration not stated) |  |  |  |  |  | > 3000 nM |  |  | viability, T/C (compound 0.00949 µM): 109% and 97.2% and 107%; viability, T/C (compound 0.03 µM): 99.2% and 97.7% and 99.4%; viability, T/C (compound 0.0949 µM): 84.9% and 85.5% and 83.2%; viability, T/C (compound 0.3 µM): 84.3% and 72.2% and 87.1%; viability, T/C (compound 0.949 µM): 77.6% and 64.7% and 77.7%; viability, T/C (compound 3 µM): 62% and 60.2% and 56.3%
10 | Cn1ncnc1[C@H]1c2n[nH]c(=O)c3cc(F)cc(c23)N[C@@H]1c1ccc(F)cc1 | 92.8% and 92.5% and 90.8% | 91.8% and 88.3% and 93.8% |  |  |  | > 100 nM | 99.5% and 95.4% and 93.1% | 90.6% and 93.5% and 96.7% | viability, T/C (compound 0.000316 µM): 104% and 94.5% and 106%; viability, T/C (compound 0.001 µM): 108% (2×) and 101%
11 | NC(=O)C(=Cn1cnc(-c2cc(C(F)(F)F)cc(C(F)(F)F)c2)n1)c1cncnc1 |  |  |  |  |  | 265 nM and 212 nM and > 300 nM |  |  | viability, T/C (compound 0.000949 µM): 102% and 107% and 95.8%; viability, T/C (compound 0.003 µM): 105% and 93.1% and 99.5%; viability, T/C (compound 0.00949 µM): 88.8% and 83.2% and 86.8%; viability, T/C (compound 0.03 µM): 89.3% and 78.8% and 86%; viability, T/C (compound 0.0949 µM): 78.5% and 71.5% and 81.5%; viability, T/C (compound 0.3 µM): 45.6% and 40.4% and 54.9%
12 | NC1CCC(NC2CC2c2ccccc2)CC1 (configuration not stated) | 105% and 93.5% and 87% | 90.1% and 91.9% and 91.5% |  |  |  | > 100 nM | 89.8% and 82% and 93.5% | 90.4% and 90% and 91.2% | viability, T/C (compound 0.000316 µM): 97.1% and 101% and 95.9%; viability, T/C (compound 0.001 µM): 97.4% and 108% and 97%
13 | O=C(c1cc(Cc2n[nH]c(=O)c3ccccc23)ccc1F)N1CCN(C(=O)C2CC2)CC1 | 106% and 108% and 101% | 98.9% and 98.3% and 106% | 92.3% and 94.9% and 95% | 96% and 91.9% and 93.1% | 93.5% and 97.9% and 94.9% | > 10000 nM |  |  | viability, T/C (compound 10 µM): 76.2% and 81% and 83.6%
14 | O=C(c1ccc(F)c(F)c1Nc1ccc(I)cc1F)N1CC(O)([C@@H]2CCCCN2)C1 | 69.4% and 74.8% and 72.2% | 53% and 61.5% and 50.5% | 44.4% and 51% and 47.7% | 30.7% and 36% and 33.2% |  | 134 nM and 265 nM and 103 nM | 97.8% and 97.6% and 103% | 96.5% and 97.5% and 102% | 
